# Experimental data as given in US20240158446A1, “CYCLIC COMPOUND HAVING SELECTIVE INHIBITORY ACTION ON KRAS OVER HRAS AND NRAS” (CHUGAI SEIYAKU KABUSHIKI KAISHA, priority 2021, published 2024).
# What was measured:
# [1] = biological target: GDP-bound KRAS wild-type protein (Homo sapiens, UniProt P01116); experiment: Binding to KRAS by surface plasmon resonance (SPR), Single Cycle Kinetics; conditions: SPR, Single Cycle Kinetics, GDP-bound KRAS wild-type protein; read-out: KRAS KD
# [2] = biological target: GDP-bound NRAS wild-type protein (Homo sapiens, UniProt P01111); experiment: Binding to NRAS by surface plasmon resonance (SPR), Single Cycle Kinetics; conditions: ratio of KD for GDP-bound NRAS wild-type protein to KD for KRAS, SPR
# GDP-bound NRAS wild-type protein, sequence (P01111 whole entry): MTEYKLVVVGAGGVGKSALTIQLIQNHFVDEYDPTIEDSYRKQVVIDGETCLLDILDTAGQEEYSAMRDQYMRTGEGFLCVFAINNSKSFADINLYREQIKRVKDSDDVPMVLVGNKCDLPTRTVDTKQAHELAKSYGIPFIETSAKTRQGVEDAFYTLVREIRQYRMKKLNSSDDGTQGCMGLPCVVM
# [3] = biological target: GDP-bound HRAS wild-type protein (Homo sapiens, UniProt P01112); experiment: Binding to HRAS by surface plasmon resonance (SPR), Single Cycle Kinetics; conditions: ratio of KD for GDP-bound HRAS wild-type protein to KD for KRAS, SPR
# GDP-bound HRAS wild-type protein, sequence (P01112 whole entry): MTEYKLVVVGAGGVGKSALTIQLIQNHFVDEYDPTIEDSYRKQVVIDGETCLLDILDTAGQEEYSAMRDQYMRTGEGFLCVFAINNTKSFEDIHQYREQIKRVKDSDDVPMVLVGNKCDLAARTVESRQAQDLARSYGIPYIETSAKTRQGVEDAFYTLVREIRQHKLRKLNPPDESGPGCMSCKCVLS
# [4] = system: human lung cancer strain NCI-H441; experiment: cells; conditions: NCI-H441, 96 h, read-out: NCI-H441 IC50 (nM), NCI-H441 cell proliferation, 4 days, CellTiter-Glo;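 further: cell proliferation inhibition after four days measured by CellTiter-Glo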
# GDP-bound KRAS wild-type protein, sequence (P01116 whole entry): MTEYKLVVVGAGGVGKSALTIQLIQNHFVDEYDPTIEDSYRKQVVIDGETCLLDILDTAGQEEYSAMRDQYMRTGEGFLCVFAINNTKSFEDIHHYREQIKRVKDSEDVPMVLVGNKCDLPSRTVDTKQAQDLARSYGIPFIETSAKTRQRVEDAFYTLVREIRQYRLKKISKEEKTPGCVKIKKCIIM
Structure (SMILES),Kd [1],IC50 [4],NRAS/KRAS (KD ratio) [2],HRAS/KRAS (KD ratio) [3]
CCO[C@@H]1C[C@H]2C(=O)NC3(CC(F)(F)C3)C(=O)N(C)[C@@H](C(CC)CC)C(=O)N3CCC[C@@H]3CC(=O)N(C)[C@@H](CC)C(=O)N[C@@H]([C@@H](C)CC)C(=O)N(C)CC(=O)N(C)[C@H]3C/C=C\CCN(C3=O)[C@@H](Cc3ccc(C(F)(F)F)cc3)C(=O)N(C)CC(=O)N[C@@H](CCc3cc(F)c(C(F)(F)F)c(F)c3)C(=O)N2C1 [PP1608],0.67 nM,70.1 nM,A (a compound having 10 or more and less than 20 is denoted as A),A (a compound having 10 or more and less than 20 is denoted as A)
CCO[C@@H]1C[C@H]2C(=O)NC3(CC(F)(F)C3)C(=O)N(C)[C@@H](C3CCCC3)C(=O)N3CCC[C@@H]3CC(=O)N(C)[C@@H](CC)C(=O)N[C@@H]([C@@H](C)CC)C(=O)N(C)CC(=O)N(C)[C@H]3C/C=C\CCN(C3=O)[C@@H](Cc3ccc(C(F)(F)F)cc3)C(=O)N(C)CC(=O)N[C@@H](CCc3cc(F)c(C(F)(F)F)c(F)c3)C(=O)N2C1 [PP1609],0.2 nM,37 nM,A (a compound having 10 or more and less than 20 is denoted as A),A (a compound having 10 or more and less than 20 is denoted as A)
CCO[C@@H]1C[C@H]2C(=O)NC3(CC(C)(C)C3)C(=O)N(C)[C@@H](C(CC)CC)C(=O)N3CCC[C@@H]3CC(=O)N(C)[C@@H](CC3CC3)C(=O)N[C@@H]([C@@H](C)CC)C(=O)N(C)CC(=O)N(C)[C@H]3C/C=C\CCN(C3=O)[C@@H](Cc3ccc(C(F)(F)F)cc3)C(=O)N(C)CC(=O)N[C@@H](CCc3cc(F)c(C(F)(F)F)c(F)c3)C(=O)N2C1 [PP1610],1.4 nM,86.8 nM,A (a compound having 10 or more and less than 20 is denoted as A),A (a compound having 10 or more and less than 20 is denoted as A)
CCO[C@@H]1C[C@H]2C(=O)NC3(CC(C)(C)C3)C(=O)N(C)[C@@H](C3CCCC3)C(=O)N3CCC[C@@H]3CC(=O)N(C)[C@@H](CC3CC3)C(=O)N[C@@H]([C@@H](C)CC)C(=O)N(C)CC(=O)N(C)[C@H]3C/C=C\CCN(C3=O)[C@@H](Cc3ccc(C(F)(F)F)cc3)C(=O)N(C)CC(=O)N[C@@H](CCc3cc(F)c(C(F)(F)F)c(F)c3)C(=O)N2C1 [PP1611],1.3 nM,28 nM,B (a compound having 3 or more and less than 10 is denoted as B),B (a compound having 3 or more and less than 10 is denoted as B)
CCO[C@@H]1C[C@H]2C(=O)NC3(CCC3)C(=O)N(C)[C@@H](C(CC)CC)C(=O)N3CCC[C@@H]3CC(=O)N(C)[C@@H](CC3CC3)C(=O)N[C@@H]([C@@H](C)CC)C(=O)N(C)CC(=O)N(C)[C@H]3C/C=C\CCN(C3=O)[C@@H](Cc3ccc(C(F)(F)F)cc3)C(=O)N(C)CC(=O)N[C@@H](CCc3cc(F)c(C(F)(F)F)c(F)c3)C(=O)N2C1 [PP1612],1.2 nM,61.9 nM,B (a compound having 3 or more and less than 10 is denoted as B),B (a compound having 3 or more and less than 10 is denoted as B)
CCO[C@@H]1C[C@H]2C(=O)NC3(CC(F)(F)C3)C(=O)N(C)[C@@H](C(CC)CC)C(=O)N3CCC[C@@H]3CC(=O)N(C)[C@@H](CC3CC3)C(=O)N[C@@H]([C@@H](C)CC)C(=O)N(C)CC(=O)N(C)[C@H]3C/C=C\CCN(C3=O)[C@@H](Cc3ccc(C(F)(F)F)cc3)C(=O)N(C)CC(=O)N[C@@H](CCc3cc(F)c(C(F)(F)F)c(F)c3)C(=O)N2C1 [PP1614],1.1 nM,54.2 nM,A (a compound having 10 or more and less than 20 is denoted as A),A (a compound having 10 or more and less than 20 is denoted as A)
CCO[C@@H]1C[C@H]2C(=O)NC3(CC(F)(F)C3)C(=O)N(C)[C@@H](C3CCCC3)C(=O)N3CCC[C@@H]3CC(=O)N(C)[C@@H](CC3CC3)C(=O)N[C@@H]([C@@H](C)CC)C(=O)N(C)CC(=O)N(C)[C@H]3C/C=C\CCN(C3=O)[C@@H](Cc3ccc(C(F)(F)F)cc3)C(=O)N(C)CC(=O)N[C@@H](CCc3cc(F)c(C(F)(F)F)c(F)c3)C(=O)N2C1 [PP1615],0.45 nM,20.9 nM,B (a compound having 3 or more and less than 10 is denoted as B),B (a compound having 3 or more and less than 10 is denoted as B)
CCO[C@@H]1C[C@H]2C(=O)NC3(CCC3)C(=O)N(C)[C@@H](C3CCCC3)C(=O)N3CCC[C@@H]3CC(=O)N(C)[C@@H](CC3CC3)C(=O)N[C@@H]([C@@H](C)CC)C(=O)N(C)CC(=O)N(C)[C@H]3C/C=C\CCN(C3=O)[C@@H](Cc3ccc(C(F)(F)F)cc3)C(=O)N(C)CC(=O)N[C@@H](CCc3ccc(C(F)(F)F)c(OC)c3)C(=O)N2C1 [PP1616],0.29 nM,33.5 nM,B (a compound having 3 or more and less than 10 is denoted as B),B (a compound having 3 or more and less than 10 is denoted as B)
CCC[C@H]1C(=O)N[C@@H]([C@@H](C)CC)C(=O)N(C)CC(=O)N(C)[C@H]2C/C=C\CCN(C2=O)[C@@H](Cc2ccc(C)cc2)C(=O)N(C)CC(=O)N[C@@H](CCc2ccc(C(F)(F)F)c(Cl)c2)C(=O)N2C[C@@H](C)C[C@H]2C(=O)NC2(CCC2)C(=O)N(C)[C@@H](C2CCCC2)C(=O)N(C)[C@H](C(=O)N(C)CC)CC(=O)N1C [PP1848],0.11 nM,22.5 nM,–,–
CC[C@H](C)[C@@H]1NC(=O)[C@H](CC)N(C)C(=O)C[C@@H](C(=O)N(C)CC)N(C)C(=O)[C@H](C2CCCC2)N(C)C(=O)C2(CC(C)(C)C2)NC(=O)[C@@H]2C[C@H](C)CN2C(=O)[C@H](CCc2cc(F)c(C(F)(F)F)c(F)c2)NC(=O)CN(C)C(=O)[C@H](Cc2ccc(C)cc2)N2CC/C=C\C[C@@H](C2=O)N(C)C(=O)CN(C)C1=O [PP1882],0.12 nM,20.2 nM,–,–
CC[C@H](C)[C@@H]1NC(=O)[C@H](CC2CC2)N(C)C(=O)C[C@@H](C(=O)N(C)CC)N(C)C(=O)[C@H](C2CCCC2)N(C)C(=O)C2(CCC2)NC(=O)[C@@H]2C[C@@H](C)CN2C(=O)[C@H](CCc2ccc(C(F)(F)F)c(OC)c2)NC(=O)CN(C)C(=O)[C@H](Cc2ccc(C)cc2)N2CC/C=C\C[C@@H](C2=O)N(C)C(=O)CN(C)C1=O [PP1900],0.17 nM,24.7 nM,–,–

# Compounds with a lower IC50 [4], results first:
Kd [1],IC50 [4],Structure (SMILES),NRAS/KRAS (KD ratio) [2],HRAS/KRAS (KD ratio) [3]
0.15 nM,14.7 nM,CCO[C@@H]1C[C@H]2C(=O)NC3(CCC3)C(=O)N(C)[C@@H](C3CCCC3)C(=O)N3CCC[C@@H]3CC(=O)N(C)[C@@H](CC3CC3)C(=O)N[C@@H]([C@@H](C)CC)C(=O)N(C)CC(=O)N(C)[C@H]3C/C=C\CCN(C3=O)[C@@H](Cc3ccc(C(F)(F)F)cc3)C(=O)N(C)CC(=O)N[C@@H](CCc3cc(F)c(C(F)(F)F)c(F)c3)C(=O)N2C1 [PP1613],B (a compound having 3 or more and less than 10 is denoted as B),B (a compound having 3 or more and less than 10 is denoted as B)
0.083 nM,7.7 nM,CC[C@H](C)[C@@H]1NC(=O)[C@H](CC(F)F)N(C)C(=O)C[C@@H](C(=O)N(C)C)N(C)C(=O)[C@H](C2CCCC2)N(C)C(=O)C2(CC(C)(C)C2)NC(=O)[C@@H]2C[C@H](C)CN2C(=O)[C@H](CCc2ccc(C(F)(F)F)c(OC)c2)NC(=O)CN(C)C(=O)[C@H](Cc2ccc(C)cc2)N2CC/C=C\C[C@@H](C2=O)N(C)C(=O)CN(C)C1=O [PP1875],–,–
0.23 nM,17.7 nM,CCO[C@@H]1C[C@H]2C(=O)NC3(CC(C)(C)C3)C(=O)N(C)[C@@H](C3CCCC3)C(=O)N(C)[C@H](C(=O)N(C)CC)CC(=O)N(C)[C@@H](C3CCC3)C(=O)N[C@@H]([C@@H](C)CC)C(=O)N(C)CC(=O)N(C)[C@H]3C/C=C\CCN(C3=O)[C@@H](Cc3ccc(C(F)(F)F)cc3)C(=O)N(C)CC(=O)N[C@@H](CCc3ccc(C(F)(F)F)c(OC)c3)C(=O)N2C1 [PP1985],–,B (a compound having 3 or more and less than 10 is denoted as B)
–,14 nM,CCCOC[C@H]1C(=O)N[C@@H]([C@@H](C)CC)C(=O)N(C)CC(=O)N(C)[C@H]2C/C=C\CCN(C2=O)[C@@H](Cc2ccc(C(F)(F)F)cc2)C(=O)N(C)CC(=O)N[C@@H](CCc2ccc(C(F)(F)F)c(OC)c2)C(=O)N2C[C@@H](C)C[C@H]2C(=O)NC2(CCC2)C(=O)N(C)[C@@H](C2CCCC2)C(=O)N(C)[C@H](C(=O)N(C)CC)CC(=O)N1C [PP2027],A (a compound having 10 or more and less than 20 is denoted as A),B (a compound having 3 or more and less than 10 is denoted as B)
–,17.5 nM,CCCOC[C@H]1C(=O)N[C@@H]([C@@H](C)CC)C(=O)N(C)CC(=O)N(C)[C@H]2C/C=C\CCN(C2=O)[C@@H](Cc2ccc(C(F)(F)F)cc2)C(=O)N(C)CC(=O)N[C@@H](CCc2ccc(C(F)(F)F)c(OC)c2)C(=O)N2C[C@@H](C)C[C@H]2C(=O)NC2(CCC2)C(=O)N(C)[C@@H](C2CCCC2)C(=O)N(C)[C@H](C(=O)N(C)CCC)CC(=O)N1C [PP2028],A (a compound having 10 or more and less than 20 is denoted as A),B (a compound having 3 or more and less than 10 is denoted as B)
–,18.9 nM,CCCN(C)C(=O)[C@@H]1CC(=O)N(C)[C@@H](CCOC)C(=O)N[C@@H]([C@@H](C)CC)C(=O)N(C)CC(=O)N(C)[C@H]2C/C=C\CCN(C2=O)[C@@H](Cc2ccc(C(F)(F)F)cc2)C(=O)N(C)CC(=O)N[C@@H](CCc2ccc(C(F)(F)F)c(OC)c2)C(=O)N2C[C@@H](C)C[C@H]2C(=O)NC2(CCC2)C(=O)N(C)[C@@H](C2CCCC2)C(=O)N1C [PP2029],A (a compound having 10 or more and less than 20 is denoted as A),B (a compound having 3 or more and less than 10 is denoted as B)
